# In patent US9586994B2, “CD44V6-derived peptides for treating breast cancer” (KARLSRUHER INSTITUT FÜR TECHNOLOGIE, priority 2012, dated 2017):
# Tests used:
# [1] = molecular target: T1, CD44v6 (Homo sapiens, UniProt P16070); test: Peptide blocking of EGF/TGFα-induced Erk phosphorylation in MCF7 cells (Western blot); assay type: cell-based; conditions: peptide 100 ng/ml
# T1 construct: endogenous in cells; host or cells: MCF7; MCF10A
# Description: 3×10^5 were seeded per well of a 6-well plate and serum-starved for 24 hours. Afterwards the medium inside of each well was reduced to 1 ml and the respective peptide (v6 (both peptides of SEQ ID No.: 2 and 6 were tested), or ctrl peptide) was added at a concentration of 100 ng/ml. The cells then were incubated together with the peptide at 37° C. for 5 mins. Ligand concentration for all peptide blocking experiments was 20 ng/ml.
# To assay protein expression via Western blot cells were washed 1× with PBS and afterwards lysed in 2×Laemmli sample buffer (160 mM Tris-HCl pH 6.8, 4% SDS, 16% glycerol, 0.1M DTT, 0.01% bromphenol blue). The sample was sheared through a 26 gauge needle. In succession the lysates were boiled for 5 mins at 99° C. in order to denature the proteins in the sample and then spun down at 10 000 rmp for 1 min Eventually the samples were loaded onto an SDS-PAGE gel.
# To test whether CD44v6 acts as a co-receptor in MCF7 or MCF10A cells, a peptide blocking experiment using peptides of SEQ ID NO: 6 was conducted. The cells were serum-starved for 24 h and then pre-incubated with a v6 peptide or an unspecific control peptide. Then, the cells were induced with EGF or HGF as a control. As a read-out for ErbB-activation, the phosphorylation of the Erk-kinase was used.
# [2] = system: CD44v6; test: HGF-induced activation of Met and ERK in L3.6pl cells (Western blot); assay type: cell-based, human; conditions: peptide before induction with 10 ng/ml HGF
# Description: Serum-starved cells (24 hours) were induced with the growth factor HGF (10 ng/mL) at 37° C. for 5 minutes. Where indicated, the cells were treated with peptides (100 ng/ml) prior to induction at 37° C. for 10 minutes (100 ng/mL CD44v6 peptide or control peptide). Following the induction with HGF, cells were washed with ice-cold phosphate-buffered saline (PBS). To detect activated Met and ERK, cells were lysed in sodium dodecyl sulfate (SDS)—sample buffer containing 100 mM dithiothreitol (DTT), boiled and subjected to western blot analysis using antibodies against phospho-Met and ERK. The loading controls were performed on the same blot after stripping (62.5 mM Tris, pH 6.8, 2% SDS, 0.8% DTT) by probing with the Met respectively Erk antibody. Blots were stained using the enhanced chemiluminescence system (Thermo Fisher Scientific, Schwerte, Germany). Bands in western blot analysis were quantified with the program Image J (National Institutes of Health).
# To expand the studies to human pancreatic tumors, the highly metastatic human pancreatic carcinoma cells L3.6pl (Bruns, et al. Neoplasia (1999), 1(1):50-62) were investigated. These cells originate from the […] cells that have been passaged several times in the liver and the pancreas, a step that rendered them more and more metastatic. It was confirmed that Met is dependent on CD44v6 for its activation and signaling in these cells (FIG. 19A). The L3.6pl cells were treated with HGF in the presence or absence of a human v6 peptide of SEQ ID NO: 2 or SEQ ID NO:6 and Met activation and downstream signaling to ERK was measured. Phosphorylation of both Met and ERK was inhibited by the human v6 peptide. Treatment with a corresponding rat v6 peptide (ctrl peptide, SEQ ID NO: 10 or 11) had no influence on receptor activation and signal transduction (FIG. 19A).
# The contribution of CD44v6 to Met signaling in the human epithelial pancreatic cancer cells L3.6pl (derived from Colo 357), the cervix carcinoma cells HeLa and the colon cancer cells HT29 were analysed using the CD44v6 peptide (v6 14mer; v6 5mer tested as well, data not shown).
# [3] = system: L3.6pl cells; test: Human orthotopic pancreatic cancer model, L3.6pl cells in nude mice, treatment from day 7; assay type: in vivo, mouse
# Description: In the case of the human orthotopic model, L3.6pl pancreatic carcinoma cells (passage 24-26) were suspended in Hank's balanced salt solution (Invitrogen, Karlsruhe, Germany) after trypsinization. The cells were injected orthotopically in the pancreas of male nude mice as described (Bruns C J et al. (1999) Neoplasia 1(1):50-62). Two groups of 15 mice each were injected i.p. 7 days later with either the human v6 peptide respectively rat control peptide (20 μg). For all experiments described and depicted herein either the rat 14mer control peptide or the human 14mer peptide were used. All experiments were then repeated with the rat 5mer control peptide or the human 5mer peptide (N-R-W-H-E, SEQ ID NO: 2). […] The injection was repeated three times per week for 21 days. Two days after the last treatment the animals were killed.
# 7 μm thick paraffin sections were deparaffinized and rehydrated. For P-Met staining antigen unmasking was achieved by boiling the slides in 1 mM EDTA pH 8.0 followed by incubation for 15 minutes at a sub-boiling temperature, for CD31 staining the sections were treated with Proteinase K (8 μg/ml) for […] at 37° C. For immunofluorescence staining of P-Met, unspecific binding was blocked with 5% goat serum (DAKO, Glostrup, Denmark) (diluted in 1×PBS/0.3% Triton X-100) for 60 minutes. In the case of immunohistochemistry, endogenous peroxidases were at first blocked with 3% H2O2 in PBS followed by incubation with biotin blocking system (Dako, Glostrup, Denmark) and then unspecific binding was inhibited by incubation with 5% FCS in PBS was used for blocking. The sections were incubated with the P-Met antibody (D26, dilution 1:50 in 1×PBS/1% BSA/0.3% Triton X-100), Met antibody (C-28, dilution 1:50), GFP antibody (sc-101525, dilution 1:50) or CD31 antibody (5 μg/ml) over night or VFF18 (5 μg/ml) o/n at 4° C. After washing in PBS the sections were incubated with Alexa Fluor R 546 goat anti-rabbit (in case of immunofluorescence P-Met and Met staining, dilution 1:500) or a biotinylated secondary antibody (for immunohistochemical stainings rabbit anti-rat antibody for VFF18 and CD31, goat anti-rabbit for P-Met, cleaved Caspase-3 and cleaved Caspase-8 and rabbit anti-mouse for GFP, dilution 1:500) for 45 minutes. For DAB staining the sections were treated with a streptavidin-peroxidase conjugate (Dako, Glostrup, Denmark) and developed with DAB (3,3′-diaminobenzidine) substrate system (3,3′-diaminobenzidine; Biozol, Eching, Germany) For immunofluorescence DAPI was used for nuclear staining.
# To test the effect of the peptide on tumor growth and metastasis formation the L3.6pl cells were orthotopically injected into the pancreas of immunosuppressed mice (NCI-nu). […] The primary tumor expresses a high amount of CD44v6 (FIG. 19B). […] Indeed, human HGF in a concentration of 3375 pg/ml was detected in the supernatant (see Material and Methods) after 5 days of culture (data not shown).
# [4] = system: L3.6pl cells; test: Regression of already established metastases, L3.6pl orthotopic mouse model; assay type: in vivo; conditions: nude mice, orthotopic L3.6pl, treatment from week 3 for three weeks; human v6 peptide or rat control peptide 20 μg i.p.
# Description: In order to examine the regression of metastases (either BSp73ASs6 or L3.6pl) were implanted as described above. Tumor growth was allowed for three weeks. At that time all animals had developed metastases in the control group. Animals were injected i.p. with 20 μg (L3.6pl orthotopic mouse model: human v6 peptide or rat control peptide) or i.v. with 200 μg (rat syngeneic model: rat v6 peptide or mouse control peptide) of peptides three times per week. Animals were killed 23 days after the start of the peptide treatment.
# The specific binding of the CD44v6 peptides to specific areas of the lungs in the rat system and of the liver in the human model raises the question whether these peptides might have an effect on already established metastases. In the experiments described in FIGS. 17 and 19 the peptides were applied early after injection of the tumor cells and repressed completely the establishment of metastases. In order to measure the effect of the CD44v6 peptide on already established metastases, other experimental settings were used. BSp73ASs6 cells were injected subcutaneously into syngeneic rats and L3.6pl cells orthotopically into male nude mice and allowed to grow for 3 weeks. […]
# T1 sequence (P16070 21-742): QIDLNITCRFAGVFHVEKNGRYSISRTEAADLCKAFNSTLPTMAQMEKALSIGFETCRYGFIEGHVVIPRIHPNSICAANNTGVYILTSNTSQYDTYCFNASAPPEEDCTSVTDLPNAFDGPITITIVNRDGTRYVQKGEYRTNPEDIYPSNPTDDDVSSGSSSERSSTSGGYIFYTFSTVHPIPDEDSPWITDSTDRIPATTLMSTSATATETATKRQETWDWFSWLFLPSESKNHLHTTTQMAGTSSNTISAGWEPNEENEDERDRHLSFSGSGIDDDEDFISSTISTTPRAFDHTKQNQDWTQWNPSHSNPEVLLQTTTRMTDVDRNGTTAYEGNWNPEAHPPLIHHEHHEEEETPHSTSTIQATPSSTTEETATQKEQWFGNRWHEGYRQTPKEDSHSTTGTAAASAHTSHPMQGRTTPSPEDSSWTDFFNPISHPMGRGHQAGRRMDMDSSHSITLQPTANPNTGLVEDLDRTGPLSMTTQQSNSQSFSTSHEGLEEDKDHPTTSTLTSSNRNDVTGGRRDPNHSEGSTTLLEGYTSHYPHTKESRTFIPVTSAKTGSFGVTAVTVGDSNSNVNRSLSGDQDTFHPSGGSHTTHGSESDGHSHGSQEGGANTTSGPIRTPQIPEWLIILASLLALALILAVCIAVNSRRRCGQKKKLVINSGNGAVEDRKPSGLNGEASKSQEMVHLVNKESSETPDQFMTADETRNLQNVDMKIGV
substance,measurement,setting,value
"NRWHE [SEQ ID NO: 2, human CD44v6 5mer peptide]",EGF-induced activation of the ErbB receptors (Erk phosphorylation),"[1]; MCF7, serum-starved, EGF 20 ng/ml",blocking of Erk phosphorylation
same,Erk phosphorylation upon TGFα induction,"[1]; MCF7, TGFα 20 ng/ml",not upon TGFα induction
same,HGF-induced phosphorylation/activation of ERK,[2],inhibited
same,HGF-induced phosphorylation/activation of Met,[2],inhibited
same,"Outcome of all experiments repeated with 5mer peptides, compared with 14mer","[3]; L3.6pl orthotopic model, 5mer instead of 14mer",same results as for the 14mer peptides
same,Metastasis formation (liver),"[3]; nude mice, orthotopic L3.6pl, 20 μg i.p. three times per week",capable of inhibiting metastasis
same,Presence of metastases (liver) after treatment of established metastases,[4],eliminate already established metastases
